Test [1] relates to P388. Briefly: Tested in vitro for the inhibition of P388 (mouse leukemia) cell line by MTT assay. Type of test: functional, cell-based.
A further test relates to QG-56. Kind of test: Tested in vitro for the inhibition of QG-56 (human lung squamous cell carcinoma) cell line by MTT assay. The format is functional, cell-based. A general note: Formazan colour is commonly taken as a measure of viable cells.
Another test concerns HOC-21 cell line. Kind of test: Tested in vitro for the inhibition of HOC-21(human ovarian cancer) cell line by MTT assay. Type of test: functional, cell-based.
Test [2] has as its system Mus musculus. Briefly: Tested for (median survival time of treated/control animals) x100 at dosage of 240 mg/kg. The format is functional.
In test [3] the test system is Mus musculus. Kind of test: Tested for (median survival time of treated/control animals) x100 at dosage of 60 mg/kg. The format is functional.
A short description of test [4]: Tested for (median survival time of treated/control animals) x100 at dosage of 480 mg/kg. The format is functional.
Test [5] has as its system Mus musculus. Kind of test: Tested for (median survival time of treated/control animals) x100 at dosage of 120 mg/kg. Type of test: functional.
Test [6] can be described thus: Tested for (median survival time of treated/control animals) x100 at dosage of 30 mg/kg. Type of test: functional.
A short description of test [7]: Tested for median survival time of treated/control animals) x100 at dosage of 480 mg/kg. Type of test: functional.
Test [8] is described as follows: Tested for median survival time of treated/control animals) x100 at dosage of 30 mg/kg. Type of test: functional.
Test [9] is described as follows: Tested for median survival time of treated/control animals) x100 at dosage of 240 mg/kg. The format is functional.
A short description of test [10]: Tested for median survival time of treated/control animals) x100 at dosage of 120 mg/kg. Type of test: functional.
The nature of test [11]: Tested for median survival time of treated/control animals) x100 at dosage of 60 mg/kg. The format is functional.
Test [12] is described as follows: Tested for (median survival time of treated/control animals) x100 at dosage of 240 mg/kg. Type of test: functional.
Test [13] can be described thus: Tested for (median survival time of treated/control animals) x100 at dosage of 120 mg/kg. Type of test: functional.
Test [14] is described as follows: Tested for (median survival time of treated/control animals) x100 at dosage of 30 mg/kg. Type of test: functional.
Test [15] in a line: Tested for (median survival time of treated/control animals) x100 at dosage of 60 mg/kg. The format is functional.
Test [16] has as its system P388. Briefly: Tested in vitro for the inhibition of P388 (mouse leukemia) cell line by MTT assay; 1.95-6.93 ng/mL. Type of test: functional, cell-based.

Values after ≈ are worked out from the molar mass of the structure shown.

`CCC1(O)C(=O)OCc2c1cc1n(c2=O)Cc2c-1nc1cccc(CN)c1c2C` (stereo not given): the values for the IC50 in the test on P388 [1], with QG-56 and with HOC-21 cell line were 5.02 ng/mL (≈ 0.0128 µM), 6.36 ng/mL (≈ 0.0162 µM) and 44.8 ng/mL (≈ 0.114 µM), respectively.

Turning to `CCC1(O)C(=O)OCc2c1cc1n(c2=O)Cc2c-1nc1cccc(COC(C)=O)c1c2COC(C)=O` (stereo not given), the half-maximal inhibitory concentration (IC50) in the test on P388 [1] was 40.5 ng/mL (≈ 0.0822 µM); in the test on QG-56, 7.41 ng/mL (≈ 0.015 µM); in the test on HOC-21 cell line, more than 500 ng/mL.

Regarding `CC[C@@]1(O)C(=O)OCc2c1cc1n(c2=O)Cc2c-1nc1cccc3c1c2CNC3`, the IC50 in the test with P388 [1] was determined as 3.39 ng/mL (≈ 0.00871 µM); in the test with QG-56 it was 2.98 ng/mL (≈ 0.00765 µM); in the test with HOC-21 cell line it was 37.8 ng/mL (≈ 0.0969 µM).

For `CC[C@@]1(O)C(=O)OCc2c1cc1n(c2=O)Cc2c-1nc1ccc(C)c3c1c2CCC3`, the values for the IC50 in the test on P388 [1], with QG-56 and in the test with HOC-21 cell line were 0.78 ng/mL (≈ 0.00194 µM), 0.68 ng/mL (≈ 0.00169 µM) and 5.88 ng/mL (≈ 0.0146 µM), respectively.

With `CC[C@@]1(O)C(=O)OCc2c1cc1n(c2=O)Cc2c-1nc1cccc3c1c2CCCC3`, the IC50 in the test with P388 [1] was determined as 1.22 ng/mL (≈ 0.00303 µM); with QG-56, 1.73 ng/mL (≈ 0.0043 µM); in the test with HOC-21 cell line, 15.6 ng/mL (≈ 0.0388 µM).

In the case of `CC[C@@]1(O)C(=O)OCc2c1cc1n(c2=O)Cc2c-1nc1cccc3c1c2COC3`, the half-inhibitory concentration (IC50) with P388 [1] worked out at 0.95 ng/mL (≈ 0.00243 µM); with QG-56, 1.14 ng/mL (≈ 0.00292 µM); in the test with HOC-21 cell line it was 12.3 ng/mL (≈ 0.0315 µM).

Consider `CC[C@@]1(O)C(=O)OCc2c1cc1n(c2=O)Cc2c-1nc1cccc(C)c1c2C`, for which the figures for the IC50 with P388 [1], in the test with QG-56 and in the test on HOC-21 cell line were 3.76 ng/mL (≈ 0.00999 µM), 0.6 ng/mL (≈ 0.00159 µM) and more than 500 ng/mL, respectively.

Take `CC[C@@]1(O)C(=O)OCc2c1cc1n(c2=O)Cc2c-1nc1ccc(O)c3c1c2CCC3`: the half-maximal inhibitory concentration (IC50) amounted to 1.6 ng/mL (≈ 0.00396 µM) with P388 [1], 0.26 ng/mL (≈ 0.000643 µM) with QG-56 and 12.6 ng/mL (≈ 0.0312 µM) with HOC-21 cell line.

In the case of `CCC1(O)C(=O)OCc2c1cc1n(c2=O)Cc2c-1nc1ccc(O)c3c1c2CCO3` (racemic), the T/C in the test on Mus musculus [2] was found to be 20%; with Mus musculus [3], 221%; in [4], 19%; in the test on Mus musculus [5], 233%; in [6] it was 147%. Also, the concentration for half-maximal inhibition (IC50) in the test on QG-56 is 1.1 ng/mL (≈ 0.00271 µM); in the test with HOC-21 cell line, 79 ng/mL (≈ 0.194 µM).

As for `CCC1(O)C(=O)OCc2c1cc1n(c2=O)Cc2c-1nc1ccc(O)c3c1c2CCC3` (racemic), the IC50 is 3.8 ng/mL (≈ 0.0094 µM) with P388 [1], 0.5 ng/mL (≈ 0.00124 µM) in the test with QG-56 and 26.4 ng/mL (≈ 0.0653 µM) in the test on HOC-21 cell line. In addition, the T/C is recorded as 88.5% in test [7]; 182% in test [8]; more than 392% in [9]; 354% in [10]; 201% in [11].

For the compound `CCC1(O)C(=O)OCc2c1cc1n(c2=O)Cc2c-1nc1ccc(O)c3c1c2CC3` (racemic), the IC50 in the test on P388 [1] is 2.22 ng/mL (≈ 0.00569 µM); in the test with QG-56, 1.25 ng/mL (≈ 0.0032 µM); with HOC-21 cell line, 15.9 ng/mL (≈ 0.0407 µM). The T/C in the test with Mus musculus [2] amounted to 90.9%; in the test on Mus musculus [3] it was 206%; in test [4], 78.2%; in the test with Mus musculus [5], 110%; in test [6], 167%.

Regarding `CCC1(O)C(=O)OCc2c1cc1n(c2=O)Cc2c-1nc1ccc(C)c3c1c2CCO3` (racemic), the IC50 is 4.5 ng/mL (≈ 0.0111 µM) with P388 [1], 1.38 ng/mL (≈ 0.00341 µM) in the test with QG-56 and 41.9 ng/mL (≈ 0.104 µM) with HOC-21 cell line. For the same compound, the T/C in the test on Mus musculus [2] was 376%; with Mus musculus [3], 260%; in [4] it was more than 376%; in the test on Mus musculus [5], 273%.

Take `CCC1(O)C(=O)OCc2c1cc1n(c2=O)Cc2cc3ccccc3nc2-1` (racemic): the T/C in test [12] was determined as 163%; in test [13] it was 148%; in test [14], 128%; in [15], 128%.

With `CCC1(O)C(=O)OCc2c1cc1n(c2=O)Cc2c-1nc1ccc(C)c3c1c2CCN3` (racemic), the T/C turned out to be 174% in the test with Mus musculus [2], 180% in test [4] and 207% in the test with Mus musculus [5]. In addition, the IC50 in the test on QG-56 is 1.68 ng/mL (≈ 0.00416 µM); in the test with HOC-21 cell line, 41.8 ng/mL (≈ 0.104 µM).

As to `CCC1(O)C(=O)OCc2c1cc1n(c2=O)Cc2c-1nc1ccc(C)c3c1c2CCS3` (racemic), the half-maximal inhibitory concentration (IC50) is 3.77 ng/mL (≈ 0.00897 µM) with P388 [1], 3.36 ng/mL (≈ 0.00799 µM) with QG-56 and 35.8 ng/mL (≈ 0.0851 µM) with HOC-21 cell line. Also, the T/C is recorded as 224% in the test with Mus musculus [3]; more than 400% in [7]; 290% in test [9]; 293% in the test with Mus musculus [5]; 205% in test [6].

With `CCc1c2c(nc3ccc(O)cc13)-c1cc3c(c(=O)n1C2)COC(=O)[C@]3(O)CC` [7-ETHYL-10-HYDROXYCAMPTOTHECIN], the IC50 with P388 [16] is 6.93 ng/mL (≈ 0.0177 µM); with QG-56 it was 3.17 ng/mL (≈ 0.00808 µM); with HOC-21 cell line it was 123 ng/mL (≈ 0.314 µM). Besides, the T/C in the test with Mus musculus [2] is given as 67%; in the test with Mus musculus [3], 191%; with Mus musculus [5], 258%; in test [6], 146%.

Regarding `CC[C@@]1(O)C(=O)OCc2c1cc1n(c2=O)Cc2cc3ccccc3nc2-1` [CAMPTOTHECIN], the T/C in test [12] turned out to be 144%; in [13], 176%; in test [14], 130%; in test [15], 142%. The results for the IC50 with P388 [1], in the test on QG-56 and in the test on HOC-21 cell line were 4.74 ng/mL (≈ 0.0136 µM), 4.63 ng/mL (≈ 0.0133 µM) and 14.7 ng/mL (≈ 0.0422 µM), respectively.

As a reminder, the IC50 is the concentration that inhibits the measured activity by half. A high value points to weaker potency in that assay. By T/C is commonly meant the ratio of treated to control.

These data come from ChEMBL document CHEMBL1127781, “Antitumor agents. 7. Synthesis and antitumor activity of novel hexacyclic camptothecin analogues” (J Med Chem, 1994).
